# In paper PMC11992225, “Antibacterial compounds against non-growing and intracellular bacteria” (npj Antimicrobials and Resistance, 2025):
# Read-outs that look alike come from different tables or passages of the source.
# Key:
# [1] = system: non-growing P. aeruginosa DSM1117; assay: Dose-dependent killing analysis (CFU spot-plating) of stationary-phase P. aeruginosa; type: cell-based, Pseudomonas aeruginosa; conditions: for killing, average Δlog10(CFU/ml): P. aeruginosa
# Method in brief: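 Viability by CFU: samples serially diluted 10-fold in PBS, spotted on LB agar, grown overnight at 37 °C, and colonies counted at the lowest resolvable dilution. Non-growing P. aeruginosa DSM1117 had been dosed for 24 h in 1:4 CA-MHB (pH 7.4); three biological replicates.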
# [2] = system: non-growing S. aureus DSM2569; assay: Dose-dependent killing analysis (CFU spot-plating) of stationary-phase S. aureus; type: cell-based, Staphylococcus aureus; conditions: at 10 µM, 24 h treatment
# Method in brief: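 Survival was scored as CFU after overnight growth at 37 °C on LB agar, using spots from 10-fold PBS dilutions of treated cultures. Non-growing S. aureus DSM2569 had been exposed to compound for 24 h in 1:4 CA-MHB, pH 7.4. Three biological replicates were run.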
# [3] = system: S. aureus DSM2569; assay: MIC, standard microdilution assay, growing S. aureus; type: cell-based, Staphylococcus aureus; conditions: Staphylococcus aureus, DSM2569, pH 7.4, read-out: MIC (μM) CA-MHB
# Method in brief: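 Medium: CA-MHB + 40 mM HEPES, pH 7.4 (UPEC, P. aeruginosa, S. aureus); LPM + 30 mM MES, pH 5.5 (UPEC, extra condition); TSB (S. flexneri). Microdilution format, n = 3.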
# [4] = system: non-growing UPEC CFT073; assay: Dilution-regrowth assay (screen, hit validation, dose-response) on stationary-phase UPEC; type: cell-based, Escherichia coli; conditions: for EC50: Escherichia coli
# Method in brief: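 Regrowth (OD600 after 6 h, 37 °C) of diluted non-growing CFT073, following 24 h compound treatment of 24 h stationary cultures, defines activity relative to untreated control. Screen at 20 µM, validation at 20, 10, 5 µM (duplicates), dose–response in three biological replicates fitted by five-parameter logistic.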
structure (smiles),measurement,setting,value
CO[C@@]12[C@H](COC(N)=O)C3=C(C(=O)C(C)=C(N)C3=O)N1C[C@@H]1N[C@@H]12 [Mitomycin C],"killing, average Δlog10(CFU/ml)",[1]; drug concentration 0.1,1.020 log10(CFU/ml)
same,"killing, average Δlog10(CFU/ml)",[1]; drug concentration 0.5,2.346 log10(CFU/ml)
same,"killing, average Δlog10(CFU/ml)",[1]; drug concentration 2.5,4.887 log10(CFU/ml)
same,"killing, average Δlog10(CFU/ml)",[1]; drug concentration 10,4.887 log10(CFU/ml)
same,killing of non-growing P. aeruginosa,"[1]; at 2.5 µM, 24 h treatment",> 4 log10
same,reduction of non-growing S. aureus,[2],below the limit of detection
same,MIC,[3],0.25 µM
same,"Regrowth, OD600 at 6h or 8h after dilution into drug-free medium (average)","[4]; E. coli in 1:4 CA-MHB (pH 7.4), drug concentration 0.25",0.575
same,"Regrowth, OD600 at 6h or 8h after dilution into drug-free medium (average)","[4]; E. coli in 1:4 CA-MHB (pH 7.4), drug concentration 0.5",0.556
same,"Regrowth, OD600 at 6h or 8h after dilution into drug-free medium (average)","[4]; E. coli in 1:4 CA-MHB (pH 7.4), drug concentration 1",0.551
same,"Regrowth, OD600 at 6h or 8h after dilution into drug-free medium (average)","[4]; E. coli in 1:4 CA-MHB (pH 7.4), drug concentration 2.5",0.482
same,"Regrowth, OD600 at 6h or 8h after dilution into drug-free medium (average)","[4]; E. coli in 1:4 CA-MHB (pH 7.4), drug concentration 5",0.179
same,"Regrowth, OD600 at 6h or 8h after dilution into drug-free medium (average)","[4]; E. coli in 1:4 CA-MHB (pH 7.4), drug concentration 10",0.065
same,"Regrowth, OD600 at 6h or 8h after dilution into drug-free medium (average)","[4]; E. coli in 1:4 CA-MHB (pH 7.4), drug concentration 30",0.063
same,"Regrowth, OD600 at 6h or 8h after dilution into drug-free medium (average)","[4]; E. coli in LPM (pH 5.5), drug concentration 0.25",0.474
same,"Regrowth, OD600 at 6h or 8h after dilution into drug-free medium (average)","[4]; E. coli in LPM (pH 5.5), drug concentration 0.5",0.440
same,"Regrowth, OD600 at 6h or 8h after dilution into drug-free medium (average)","[4]; E. coli in LPM (pH 5.5), drug concentration 1",0.294
same,"Regrowth, OD600 at 6h or 8h after dilution into drug-free medium (average)","[4]; E. coli in LPM (pH 5.5), drug concentration 2.5",0.140
same,"Regrowth, OD600 at 6h or 8h after dilution into drug-free medium (average)","[4]; E. coli in LPM (pH 5.5), drug concentration 5",0.136
same,"Regrowth, OD600 at 6h or 8h after dilution into drug-free medium (average)","[4]; E. coli in LPM (pH 5.5), drug concentration 10",0.136
same,"Regrowth, OD600 at 6h or 8h after dilution into drug-free medium (average)","[4]; E. coli in LPM (pH 5.5), drug concentration 30",0.134
same,EC50,[4]; pH 5.5,706 nM
same,EC50,"[4]; pH 5.5, read-out: EC50 (regrowth inhibition curve, Fig. S4)",690 nM
same,EC50,[4]; pH 7.4,3680 nM
same,EC50,"[4]; pH 7.4, read-out: EC50 (regrowth inhibition curve, Fig. S4)",3770 nM
same,activity against non-growing UPEC in LPM (pH 5.5) compared to 1:4 CA-MHB (pH 7.4),"[4]; regrowth delay and killing, Figs. 2 and 3",potentiated by the low pH
